Source: patent US7354737B2, “Biomolecule transduction motif Sim-2-BTM and the use thereof” (ForHumanTech Co., Ltd., priority 2002, dated 2008)

What was measured:
[1] = tested on: Jurkat T cells; assay: Transduction of insulin fusion proteins, detected using mAb to insulin; type: cell-based; settings: detected with mAb to insulin
Excerpt: A fusion protein of Sim-2 BTM and biologically active functional regulatory protein, which was expressed and purified from bacteria, was reformed so as to have natural folding structure and functions. Specifically, the fusion protein isolated and purified from bacteria was transferred again into CHO (Chinese hamster ovary) cells, and then the fusion protein, which had complete folding structure and functions found in natural state, was isolated and purified. As for purified 2 (two) types of fusion proteins, biological activity regulating capabilities were examined. For this examination, an expression vector pSim-2-insulin was designed in order to prepare fusion protein between Sim-2 BTM and human insulin. In order to make this expression vector, a 5′ primer of SEQ. ID No.:17 comprising nucleic acid sequence of Xba I restriction enzyme, nucleic acid sequence of Sim-2 BTM and N-terminal nucleic acid sequence of human insulin, and a 3′ primer of SEQ. ID No.:18 comprising nucleic acid sequence of Hind m and C-terminal nucleic acid sequence of human insulin were prepared. Then, PCR amplification was carried out using human pancreas beta cells prepared in our laboratory, as a template, and using the primers above mentioned. […] Following the treatment, the transduction level of insulin into the cells was detected using mAb to the insulin and was compared.

[2] = tested on: Streptozotocin-Induced diabetic mice; assay: Blood glucose level lowering in Streptozotocin-Induced diabetic mice; type: in vivo; settings: IP injection (1-10 mM)
Experimental: Blood glucose level lowering was examined using Sim-2-insulin and Sim-2-insulin-PR in the Example 13 with Streptozotocin-Induced diabetic mice. After 3 (three) days of abstinence, STZ (Sigma Chemical Co, St Louis, USA) (60 mg/kg) were […]. Insulin dependent diabetic mice were defined having 20 mmol/L or more blood glucose level together with other diabetic syndrome such as polyurea etc. All the in vivo studies were carried out after 2 weeks from the induction of diabetes. Recombinant insulin alone, Sim-2-insulin and Sim-2-insulin-PR in the Example 13 were, respectively, administered to the mice by IP injection (1-10 mM), and the blood glucose levels in the mice were monitored. In order to analyze the level of blood glucose, about 0.2 ml of blood was collected from each of the mice after anesthetizing them, and then the blood was subject to centrifuge at 13,000 rpm for 3 min. Next, about […] of serum was added to 1.5 ml of glucose kit agent (BiosystemSA, Barcelona, Spain) and the mixture was incubated at 37° C. for 10 min in water-bath. The level of blood glucose was detected with blood glucose analyzer (Quik-Lab, Ames, Miles Inc. Elkart, Ind., USA).

[3] = tested on: HUVEC, HeLa, 293 and Jurkat cells; assay: Transduction of fusion protein across cell membrane, β-galactosidase staining and microscopy; type: cell-based; settings: 0.5 μM, 30 min, 37° C., HeLa, 293, Jurkat cells
Experimental: HUVEC (ATCC:CRL-1730) (2×10^5), HeLa (ATCC:CCL-2) (2×10^5), and 293 (ATCC:CRL-1573) (2×10^5), which were incubated in 10% FBS (Fetal Bovine Serum) of DMEM, were respectively transferred to Lab-tek II chamber slides. Jurkat cells (ATCC:CRL-10915) (2×10^5) incubated in 10% FBS RPMI were transferred to poly-L-lysin coated slide. Each of the slides was treated with the purified 0.5 μM of Sim-2-β-galactosidase for 30 min at 37° C. in 5% CO2 incubator. And the supernatants were removed from the slides. The incubation mixtures were washed using ice-cold PBS four times and then were solidified with 2% formaldehyde solution for 10 min. After removing the solidified solutions, the mixtures were washed again using ice-cold PBS four times. Subsequently, the respective mixtures were treated with 700 μl of β-galactosidase staining solution (Roche. Co.) for 45 min at 37° C. in 5% CO2 incubator. Following the staining, the mixtures were washed with ice-cold PBS four times after removing the supernatants. Next, the mixtures were mounted with 70% glycerol on the microscope slides.

| Substance | transduction level of insulin into Jurkat T cells [1] | blood glucose level, After administration ([2]; after administration) | blood glucose level, Before administration ([2]; before administration) | lowering of blood glucose level ([2]; from Table 3) [%] | transduction across the cell membranes (β-galactosidase staining) [3] |
| --- | --- | --- | --- | --- | --- |
| Recombinant insulin: recombinant insulin not fused to Sim-2 BTM | almost none | 2320 | 5600 | 50 | – |
| β-gal: β-galactosidase reporter protein not fused to Sim-2 | – | – | – | – | not transduced at all |
